pKd: −log10 of the molar value. Each block holds one compound with its values, some of them ahead of it.
Key:
[1] = test system: PPARδ targets PDPK1 and CD47 in TNBC cells MB-157; assay: Real-time PCR of PPARδ targets; format: cell-based, human; details: MB-157, 1 μM, 6 hours
Procedure: (§1) Cells were treated with a compound for 6 h. then lysed and RNA was extracted using Trizol, according to the manufacturer's instructions. cDNA was generated using GeneAmp RNA PCR (Applied Biosystems). qPCR was carried out using TaqMan chemistry and Assays-on-Demand probes (Applied Biosystems). 18s (4352930) rRNA was used for normalization. Relative expression was calculated as 2^−ΔΔCT.

[2] = test system: FABP5 together with PPARδ; assay: Transcriptional activation assay in cells overexpressing FABP5, with PPARδ activator GW0742; format: cell-based; details: together with GW0742, FIG. 8
Procedure: (§2) COS-7 were cultured in 6-well plates and co-transfected with either a luciferase reporter driven by 3 copies of a PPRE and expression vector for either PPARδ, PPARα or PPARγ together with a vector harboring cDNA for β-galactosidase, serving as a transfection control. To test whether FABP4 or FABP5 mediate activation of their cognate receptors PPARγ and PPARδ, respectively, cells were also co-transfected with a plasmid harboring sequence of either FABP4 or FABP5. 18 h post-transfection, cells were placed in a serum-free medium and treated with agonist/compound. 18 h. later, cells were lysed, luciferase activity was assayed (Promega, WI, USA) and corrected for transfection efficiency by the activity of β-galactosidase.

[3] = test system: MB-231 shC and shF5 cells; assay: Proliferation assay, MB-231 lines expressing control shRNA (shC) or FABP5 shRNA (shF5); format: cell-based; details: MB-231 shC vs shF5, different concentrations
Procedure: (§3) 2000 cells were plated in each well of 96-well plate. The next day cells were treated with compounds and incubated in Incucyte for 4 days. Images taken every 4 hours for the duration of the time were analyzed to calculate percentage of confluency in response to the treatments. Growth inhibition was calculated as 1−(percentage of viable cells out of untreated cells).

[4] = test system: FABP4 together with PPARγ; assay: Transcriptional activation assay in cells overexpressing FABP4, with PPARγ activator rosiglitazone; format: cell-based; details: FIG. 7
Procedure: as §2

[5] = test system: PPARγ; assay: Transactivation assay, PPRE luciferase reporter in COS-7 cells; format: cell-based; details: for activation of transcription by PPARγ: tested against rosiglitazone, FIG. 4; for activation of PPARγ: 5 μM, COS7 cells, FIG. 36C
Procedure: as §2
(§4) COS-7 were cultured in 6-well plates and co-transfected with either a luciferase reporter driven by 3 copies of a PPRE and expression vector for either PPARδ, PPARα or PPARγ together with a vector harboring cDNA for β-galactosidase, serving as a transfection control. 18 h. post-transfection, cells were placed in a serum-free medium and treated with agonist/compound. 18 h. later, cells were lysed, luciferase activity was assayed (Promega, WI, USA) and corrected for transfection efficiency by the activity of β-galactosidase.

[6] = target: T1, PPARα (Homo sapiens, UniProt Q07869); assay: as above; format: cell-based
T1 construct: expressed in transfected cells; host or cells: COS-7
T1 sequence (Q07869 whole entry, species assumed): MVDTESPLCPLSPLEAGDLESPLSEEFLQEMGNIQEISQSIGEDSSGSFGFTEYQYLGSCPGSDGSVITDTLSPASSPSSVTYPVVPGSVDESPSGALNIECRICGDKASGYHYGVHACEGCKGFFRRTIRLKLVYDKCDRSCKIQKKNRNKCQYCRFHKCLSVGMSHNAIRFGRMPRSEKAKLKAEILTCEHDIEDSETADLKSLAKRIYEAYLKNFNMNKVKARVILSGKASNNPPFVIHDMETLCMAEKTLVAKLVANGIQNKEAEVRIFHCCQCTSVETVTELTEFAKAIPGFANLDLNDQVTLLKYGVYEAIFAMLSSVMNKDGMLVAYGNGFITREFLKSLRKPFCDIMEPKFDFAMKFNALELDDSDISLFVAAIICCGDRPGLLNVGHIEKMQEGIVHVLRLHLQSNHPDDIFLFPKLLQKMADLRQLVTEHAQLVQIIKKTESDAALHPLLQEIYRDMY
Procedure: as §2, §4

[7] = test system: PPARδ; assay: as above; format: cell-based
Procedure: as §2, §4

[8] = test system: PPARδ targets PDPK1 and CD47 in TNBC cells MB-231; assay: Real-time PCR of PPARδ targets; format: cell-based; details: MB-231, 1 μM, 6 hours
Procedure: as §1

[9] = test system: TNBC lines and MCF7; assay: Proliferation assay in multiple TNBC lines and MCF7, MB-231 shF5 as control; format: cell-based
Procedure: as §3

[10] = target: T2, FABP4 (Homo sapiens, UniProt P15090); assay: FABP binding assay by fluorescence titration (ANS competition); details: fluorescence competition with ANS; read-out: FABP4 binding
T2 construct: made in house
T2 sequence (P15090 whole entry, species assumed): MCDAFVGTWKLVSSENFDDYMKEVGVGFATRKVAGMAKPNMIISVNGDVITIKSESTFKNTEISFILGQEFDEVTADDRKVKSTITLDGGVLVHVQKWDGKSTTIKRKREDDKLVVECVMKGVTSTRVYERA
Procedure: (§5) This example illustrates a binding assay study used to determine the binding affinity of the various inhibitor compounds disclosed herein with the various FABPs: FABP3, FABP4, FABP5 and FABP7.
(§6) Binding assays for FABP3, FABP4, FABP5 and FABP7 were carried out by fluorescence titrations. FABPs were bacterially expressed and purified and the equilibrium dissociation constants (Kd) that characterize their interactions with different compounds were measured by fluorescence competition assays. The method entails two steps as described in e.g., Lin, Q. et al., “Ligand selectivity of the peroxisome proliferator-activated receptor alpha,” Biochemistry 38, 185-190, doi:10.1021/bi9816094 bi9816094 [pii](1999). In the first step, Kd for the association of the protein with the fluorescent fatty acid probe ANS was measured. Protein ([…]) was titrated with ANS from a concentrated solution in DMSO. Ligand binding was monitored by following the increase in the fluorescence of the ligand upon binding to the protein, and Kd for the association of ANS with the each FABP was computed from titration curves as described in e.g., Norris, A. W. & Li, E., “Fluorometric titration of the CRABPs,” Methods Mol Biol 89, 123-139 (1998)). Kds for binding of non-fluorescent ligands were then measured by monitoring their ability to displace ANS in the binding pocket of the protein. Each FABP was pre-complexed with ANS at 1:1 molar ratio and titrated with the different compounds whose binding was reflected by a decrease in probe fluorescence. Kds were extracted from the EC50 of the competition curve and the measured Kd for ANS.
(§7) Binding assays for FABP3, FABP4, FABP5 and FABP7 were carried out by fluorescence titrations as described in Example 16.

[11] = target: T3, FABP5 (Homo sapiens, UniProt Q01469); assay: as above; details: fluorescence competition with ANS; read-out: FABP5 binding
T3 construct: made in house
T3 sequence (Q01469 whole entry, species assumed): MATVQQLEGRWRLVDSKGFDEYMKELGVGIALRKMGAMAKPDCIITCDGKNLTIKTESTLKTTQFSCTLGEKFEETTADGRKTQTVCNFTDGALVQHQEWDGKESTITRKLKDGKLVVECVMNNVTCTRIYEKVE
Procedure: as §5, §6, §7

[12] = test system: MB-231 cells; assay: Proliferation assay (Incucyte confluency, 4 days); format: cell-based; details: MB-231, serial dilution
Procedure: (§8) COS-7, MDA-MB-231, HepG2, LX-2, 3T3-L1, NPG, and MCF7 were cultured in Dulbecco's modified Eagle's medium (DMEM) supplemented with 10% fetal bovine serum (Invitrogen Life Sciences, Carlsbad, CA). MDA-MB-157 and MB-549 cells were cultured in L-Glutamine containing RPMI medium supplemented with 10% fetal calf serum (Invitrogen Life Sciences, Carlsbad, CA). For proliferation assays, 2000 cells were plated in each well of 96-well plate. The next day cells were treated with compounds and incubated in Incucyte for 4 days. Images taken every 4 hours for the duration of the time were analyzed to calculate percentage of confluency in response to the treatments.
The TNBC line MB-231 was used to calculate the efficacy of compounds B104, B106, B110, B116, and B118 in inhibiting proliferation of the cancer cells. Cells were treated with serial dilution of the compounds or the known FABP5/7 inhibitor SBF-I26 and proliferation was measured in Incucyte by calculating percentage of confluency every 4 hours over 4 days. […] The EC50 for each compound was calculated by fitting the percentage of inhibition vs. the logarithmic transformation of the used concentrations (FIG. 37B and FIG. 37D). Additionally, the effect of B116 and B118 was also tested on proliferation of the human TNBC lines MDA-MB-157 (FIG. 37E) and MB-549 (FIG. 37F).

[13] = test system: NPG human neuroblastoma cells; assay: Neuroblastoma proliferation assay with or without all-trans retinoic acid; format: cell-based; details: for proliferation of neuroblastoma cells in combination with atRA: combined with atRA; for proliferation of neuroblastoma cells: compound alone, 4 days
Procedure: as §8
Activation of PPARβ by atRA shifts the signaling of this vitamin from its cognate receptor RAR that is known to have anti-carcinogenic activities in multiple cancers to the pro-carcinogenic PPARβ. […] Accordingly, NB, human NPG cells were used to test the effect of FABP5 inhibitors on cells' proliferation in combination with atRA. Cells were treated with either B104 or B108 in the presence or absence of atRA.

activation of PPARα ([6]; compared to WY-14643, FIG. 6): activate PPARα
Structure (SMILES): O=C(O)CSCC(=O)Nc1cc(OCc2ccccc2)c(Cl)cc1Cl [Compound B7]
levels of endogenous PPARδ targets PDPK1 and CD47 [1]: significantly lower
inhibition of PPARδ activity in cells overexpressing FABP5 [2]: inhibit activity of the nuclear receptors only in cells that express the binding proteins
TNBC cell growth, shC versus shF5 [3]: suppressed TNBC cell growth only in the cells highly expressing FABP5
inhibition of PPARγ activity in cells overexpressing FABP4 [4]: inhibit activity of the nuclear receptors only in cells that express the binding proteins
activation of transcription by PPARγ [5]: did not activate transcription
activation of transcription by PPARδ ([7]; compared to GW0742, FIG. 5): did not active transcription
levels of endogenous PPARδ targets PDPK1 and CD47 [8]: significantly lower
growth inhibition of TNBC lines by FABP5 level [9]: inhibited growth of only TNBC lines expressing high FABP5 levels

pKd [10]: 6.66
pKd [11]: 8.22
Structure (SMILES): CC(C)Oc1cc(NC(=O)CCCC(=O)O)c(Cl)cc1Cl [Compound B114, 5-((2,4-dichloro-5-isopropoxyphenyl)amino)-5-oxopentanoic acid]

pKd [10]: 7.01
pKd [11]: 8.15
activation of PPARα ([6]; 5 μM, COS7 cells, FIG. 36B): activate both PPARα and PPARγ
Structure (SMILES): CC(C)Oc1cc(NC(=O)CSC(C)(C)C(=O)O)c(Cl)cc1Cl [Compound B104, 2-((2-((2,4-dichloro-5-isopropoxyphenyl)amino)-2-oxoethyl)thio)-2-methylpropanoic acid]
suppression of growth of TNBC cells compared with SBF-I26 [12]: Suppress Growth of TNBC Cells More Effectively than the Commercially Available Inhibitor SBF-I26
proliferation of neuroblastoma cells in combination with atRA [13]: enhanced
proliferation of neuroblastoma cells [13]: significantly inhibited proliferation
activation of PPARγ [5]: activate both PPARα and PPARγ
activation of transcription by PPARδ ([7]; 5 μM, COS7 cells, FIG. 36A): do not Activate Transcription

pKd [10]: 7.32
pKd [11]: 8.70
Structure (SMILES): CC(C)Oc1cc(NC(=O)C2CCC(C(=O)O)S2)c(Cl)cc1Cl (centres unmarked) [Compound B108, 5-((2,4-dichloro-5-isopropoxyphenyl)-carbamoyl)tetrahydrothiophene-2-carboxylic acid]
suppression of growth of TNBC cells compared with SBF-I26 [12]: Suppress Growth of TNBC Cells More Effectively than the Commercially Available Inhibitor SBF-I26
proliferation of neuroblastoma cells in combination with atRA [13]: enhanced
proliferation of neuroblastoma cells [13]: significantly inhibited proliferation
activation of PPARγ [5]: activated PPARγ
activation of transcription by PPARδ ([7]; 5 μM, COS7 cells, FIG. 36A): do not Activate Transcription

pKd [10]: 6.94
pKd [11]: 8.22
Structure (SMILES): CC(C)Oc1cc(NC(=O)CSC(C)C(=O)O)c(Cl)cc1Cl (centres unmarked) [Compound B102, 2-((2-((2,4-dichloro-5-isopropoxyphenyl)amino)-2-oxoethyl)thio)propanoic acid]

pKd [10]: 6.62
pKd [11]: 7.82
Structure (SMILES): CC(C)Oc1cc(NC(=O)COCC(=O)O)c(Cl)cc1Cl [Compound B110, 2-(2-((2,4-dichloro-5-isopropoxyphenyl)amino)-2-oxoethoxy)acetic acid]
suppression of growth of TNBC cells compared with SBF-I26 [12]: Suppress Growth of TNBC Cells More Effectively than the Commercially Available Inhibitor SBF-I26
activation of transcription by PPARδ ([7]; 5 μM, COS7 cells, FIG. 36A): do not Activate Transcription

Structure (SMILES): C#CCOc1cc(NC(=O)CSCC(=O)O)c(Cl)cc1Cl [Compound B9]
levels of endogenous PPARδ targets PDPK1 and CD47 [1]: significantly lower
inhibition of PPARδ activity in cells overexpressing FABP5 [2]: inhibit activity of the nuclear receptors only in cells that express the binding proteins
TNBC cell growth, shC versus shF5 [3]: suppressed TNBC cell growth only in the cells highly expressing FABP5
inhibition of PPARγ activity in cells overexpressing FABP4 [4]: inhibit activity of the nuclear receptors only in cells that express the binding proteins
activation of transcription by PPARγ [5]: did not activate transcription
activation of transcription by PPARδ ([7]; compared to GW0742, FIG. 5): did not active transcription
levels of endogenous PPARδ targets PDPK1 and CD47 [8]: significantly lower
growth inhibition of TNBC lines by FABP5 level [9]: inhibited growth of only TNBC lines expressing high FABP5 levels

pKd [10]: 6.54
pKd [11]: 7.82
Structure (SMILES): CC(C)Oc1cc(NC(=O)C(C)SC(C)C(=O)O)c(Cl)cc1Cl (centres unmarked) [Compound B106, 2-((1-((2,4-dichloro-5-isopropoxyphenyl)amino)-1-oxopropan-2-yl)thio)propanoic acid]

pKd [10]: 6.94
pKd [11]: 7.82
Structure (SMILES): CC(C)Oc1cc(NC(=O)C2CCC(C(=O)O)O2)c(Cl)cc1Cl (centres unmarked) [Compound B112, 5-((2,4-dichloro-5-isopropoxyphenyl)carbamoyl)tetrahydrofuran-2-carboxylic acid]
